The values that follow come from US4257962A, “Derivatives of bicyclic lactols” (Chinoin Gyogyszer es Vegyeszeti Termekek Gyara Rt., priority 1977, dated 1981).

Molecules are shown by their SMILES.

Usually LD50 stands for the dose expected to kill half of the subjects tested. Low values mean a more toxic substance, high ones a less toxic substance.

The series is described as follows: Acute toxicity (LD50) in mice. The following applies: mouse, in vivo.

As to `CCCCCOC1C[C@@H]2[C@@H](/C=C/[C@H](O)CCCCC)[C@H](O)C[C@@H]2O1` (single isomer, unassigned; (-)) [(-)-2,3,3aβ,6aβ-Tetrahydro-2-pentyloxy-5α-hydroxy-4β-(3β-hydroxy-oct-1-trans-enyl)-cyclopentano[b]furan], the LD50 was found to be 700 mg/kg.
